# Literature values, collected in US6717017B2, “Total synthesis of antitumor acylfulvenes” (The Regents of the University of California, priority 1996, dated 2004).
# Tests used:
# [1] = system: MV 522 metastatic lung carcinoma xenografts; settings: MV 522 metastatic lung carcinoma xenografts in nude mice
# skin cancers = settings: in vivo
smiles,measurement,setting,value
"CC1=C(CO)C2=C(C)C3(CC3)[C@@](C)(O)C(=O)C2=C1 [HMAF, hydroxymethylacylfulvene]",tumor regression,[1],complete tumor regression was observed in all animals
same,activity against breast (MX-1) cancer,breast (MX-1),outstanding activity
same,activity against colon (HT-29) cancer,colon (HT-29),outstanding activity
same,activity against skin cancers,skin cancers,outstanding activity
